Where two headings read alike, the source gives them in different places. No end group written: not given here.

For this test, the target named is T1, GPR103 Y29N-termA (Homo sapiens, UniProt Q96P65, Y29A).
T1 construct: we used human full-length QRFPR-encoding plasmids; expressed in transfected cells; host or cells: HEK293 cells, pCAGGS vector
T1 sequence (Q96P65 1-431 Y29A): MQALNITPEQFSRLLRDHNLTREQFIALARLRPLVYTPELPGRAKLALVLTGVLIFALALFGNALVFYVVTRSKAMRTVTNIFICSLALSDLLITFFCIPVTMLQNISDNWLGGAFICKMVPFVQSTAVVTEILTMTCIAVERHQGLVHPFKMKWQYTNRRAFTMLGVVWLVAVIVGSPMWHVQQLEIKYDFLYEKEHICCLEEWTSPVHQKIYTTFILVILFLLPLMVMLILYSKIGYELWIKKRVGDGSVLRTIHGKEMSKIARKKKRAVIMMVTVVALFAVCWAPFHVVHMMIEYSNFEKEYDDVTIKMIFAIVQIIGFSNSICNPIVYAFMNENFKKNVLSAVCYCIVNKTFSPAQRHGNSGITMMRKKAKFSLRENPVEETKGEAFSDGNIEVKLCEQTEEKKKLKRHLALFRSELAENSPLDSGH
The test is described as follows: TGFα shedding assay; Exp. level WT (1:20). The test is classed as cell-based. As to the method:
For the TGFα shedding assay and the flow cytometry analysis, we used human full-length QRFPR-encoding plasmids. Specifically, GPR103 was N-terminally modified with an HA signal sequence followed by a FLAG epitope and then a flexible linker ([…]; the FLAG epitope is underlined) and inserted into the pCAGGS vector. Plasmid encoding GPR103 mutants were generated using Quickchange Site-Directed Mutagensis kit (Agilent).
The TGFα shedding assay was performed as described previously with minor modifications. Plasmid transfection was performed in a 6-well plate with a mixture of 500 ng (per well in a 6-well plate) AP-TGFα-encoding plasmid and 200 ng GPR103-encoding plasmid. After 1-day culture, the transfected cells were harvested by trypsinization, pelleted by centrifugation at 190 × g for 5 min, and washed once with 5 mM HEPES (pH 7.4)-containing Hank’s Balanced Salt Solution (HBSS). After centrifugation, the cells were resuspended in 8 mL of the HEPES-containing HBSS. The cell suspension was seeded in a 96-well culture plate (cell plate) at a volume of 90 μL (per well hereafter) and incubated in a 37 °C incubator with 5% CO2 for 30 min. […] After spinning the cell plates at 190 × g for 2 min, 80 μL of conditioned media was transferred to an empty 96-well plate (conditioned media (CM) plate). Then, 80 μL of AP reaction solution (10 mM p-nitrophenylphosphate (p-NPP), 120 mM Tris-HCl (pH 9.5), 40 mM NaCl, and 10 mM MgCl2) was dispensed into the cell plates and the CM plates. Absorbance at 405 nm of the plates was measured using a microplate reader (SpectraMax 340 PC384, Molecular Devices) before and after 1-h incubation at room temperature. Ligand-induced AP-TGFα release was calculated by subtracting spontaneous AP-TGFα release signal from ligand-induced AP-TGFα release signal. The AP-TGFα release signals were fitted to a four-parameter sigmoidal concentration–response curve, using the Prism 10 software (GraphPad Prism). For each replicate experiment, the pEC50 parameter (negative logarithmic values of EC50 values) of the individual GPR103 mutants were normalized to that of the wild-type GPR103 performed in parallel, and resulting ∆pEC50 values were used to denote ligand response activity of the mutants. […]
Exp. le vel: WT (1:5 0)Exp. le vel: WT (1:5 0)Exp. le vel: WT (1:5 0)Exp. le vel: WT (1:2 0)Exp. le vel: WT (1:2 0)Exp. le vel: WT (1:1 0) […]
L1 4N - t e r mA F2 5N - t e r mA I 2 6N - t e r mA Y 2 9N - t e r mA C 9 82 .5 7A T10 22 .6 1A Exp . l eve l: WT (1 :5)Exp . l evel : >WT (1 :1)Exp. le vel: WT (1:2 0)Exp. le vel: WT (1:2 0)Exp. le vel: WT (1:5 0)Exp . l eve l: WT (1 :1) […]
Exp. le vel: WT (1:1 0)Exp. le vel: WT (1:2 0) C 1 1 83 .2 5AExp. le vel: WT (1:5 0)Exp. le vel: WT (1:5 0)Exp. le vel: WT (1:2 0)Exp . l eve l: WT (1 :5) […]
Exp. le vel: WT (1:5 0)Exp. le vel: WT (1:1 0)Exp. le vel: WT (1:5 0) E203ECL2AExp . l evel : >WT (1 :1)Exp. le vel: WT (1:5 0)Exp. le vel: WT (1:5 0) […]
Exp . l eve l: WT (1 :1) F28Exp. le vel: WT (1:5 0) C 2 8 56 .4 7AExp. le vel: WT (1:2 0) WExp. le vel: WT (1:2 0) F28Exp. le vel: WT (1:5 0)Exp . l evel : >WT (1 :1) […]
Exp. le vel: WT (1:5 0)Exp. le vel: WT (1:5 0) C 3 2 77 .4 8AExp . l eve l: WT (1 :5)Exp . l evel : >WT (1 :1)Exp . l evel : >WT (1 :1) […]
Suppl eme nt ary Figure 1 | Mutational analysis of GPR103. […]
mutants. Data are presented as mean values ± SEM, normally n=3-5; dots), each performed in triplicate. b-d Cell-surface expression (b) and QRFP26-in-duced activation of GPR103 (c, d) were analyzed by the flow cytometry and the TGFα shedding assay, respectively. From the concentration–response curves (a), Emax (c) and ΔpEC50 (d) values relative to the wild type were calculated. Colors in the mutant bars indicate an expression level matching to that of titrated wild type. Statistical analyses were performed using the ordinary one-way ANOVA followed by Dunnett tests with the expression-matched […]

The EC50 is the concentration giving half of the maximal effect. A higher EC50 goes with lower potency in that assay. On to TSGPLGNLAEELNGYSRKKGGFSFRF-NH2 [QRFP26], for which the Emax runs as follows: (Exp. #1) 95.50 % WT; (Exp. #2) 84.01 % WT; (Exp. #3) 93.81 % WT; (mean, read-out: Emax) 91.1%; (n = 3, read-out: Emax) 94 ± 2.9%. In addition, the EC50 (n = 3) was 269 nM.

The values above are taken from PMC11187126, “Structure and dynamics of the pyroglutamylated RF-amide peptide QRFP receptor GPR103” (Nature Communications, 2024).
